Legend:
[1] = test system: scopolamine memory acquired disorder model of mice; experiment: Morris water maze, orientation navigation test; format: in vivo; settings: 0.1 mg/kg
Description: (§1) Mice were randomly divided into 5 groups evenly, namely, normal control group, model group, low dosage group, high dosage group, positive control drug Huperzine A group (0.1 mg/kg). The mice were intragastrically administered once daily (0.2 mL/10 g). After 30 consecutive days, except the normal control group, the memory acquired disorder model of mice was replicated respectively with scopolamine, and the learning performance of mice was determined with the Morris water maze test (scopolamine-induced orientation navigation and spatial memory experiment).
(§2) In accordance with technical requirements including “technical specifications of health food inspection and evaluation”, the dosage was calculated by conversion of the intended clinical daily dosage on the basis of the body surface area. When orally administered to mice, low and high dosages were arranged for each sample, respectively, which correspond to about 10 and 20 times of intended daily dosage for adults. Namely: low dosage group (1.3 g/kg), high dosage group (2.6 g/kg).
(§3) As for the positive control drug Huperzine A, the clinical adult dosage is about 0.4 mg/day, and the dosage for mice is 0.06 mg/kg, which is calculated by conversion on the basis of the body surface area. 0.1 mg/kg was used in the present experiment.
(§4) Morris water maze test was carried out according to the method in references. The orientation navigation test was started from the 25th day, and lasted for 4 consecutive days. The time of finding the platform of mice within 90 s (the escape latency), swimming distance, the swimming time proportion in the quadrant of the original platform, times of crossing the location of the original platform (i.e., shuttle times), and the time of first arrival at the original platform were recorded.
(§5) Mice were randomly divided into 5 groups, namely, normal control group, model group, low dosage group (1.3 g/kg), high dosage group (2.6 g/kg), positive control drug Huperzine A group (0.1 mg/kg). The mice were intragastrically administered once daily (0.2 mL/10 g). After 30 consecutive days, except the normal control group, the memory acquired disorder model of mice was replicated respectively with scopolamine, and the learning performance of mice was determined with the Morris water maze test (scopolamine-induced orientation navigation and spatial memory experiment).
(§6) In this example, respective groups of animals were adaptively fed for 3 days before intragastrical administration. The normal control group and model control group were intragastrically administered once daily with equal volume of 0.5% CMCNA, respectively. The administration was carried out with a volume of 0.2 mL/10 g body weight for 30 consecutive days. Morris water maze test was carried out according to the method in literatures. The orientation navigation test was started from the 25th day, and lasted for 4 days. The time of finding the platform of mice within 90 s (the escape latency), swimming distance, the swimming time proportion in the quadrant of the original platform, times of crossing the location of the original platform (i.e., shuttle times), and the time of first arrival at the original platform were recorded.

[2] = test system: scopolamine hydrobromide-induced mice memory acquired disorder model; experiment: Morris water maze, space exploration test; format: in vivo; settings: 0.1 mg/kg
Description: as §1, §2, §3, §4, §5, §6

[3] = test system: scopolamine hydrobromide induced memory acquired disorder in mice; experiment: Step-down test; format: in vivo, Kunming mice; settings: 0.1 mg/kg
Description: as §5, with “group,” for “group (1.3 g/kg),”, “group,” for “group (2.6 g/kg),”, “[…] of scopolamine hydrobromide,” for “scopolamine,”, “step-down test.” for “Morris water maze test (scopolamine-induced orientation navigation and spatial memory experiment).”
as §2
(§7) The time of the first jumping of mice (i.e., latency) and the times of jumping of mice within 5 minutes (i.e., errors times) were tested and recorded with jumping apparatus, and the latency and error times were used as the investigation indexes of the experiment.
60 screened healthy adult Kunming mice were used, with body weight (20-24) g, male, 12 […] in each group. Mice were randomly divided into 5 groups, namely, normal control group (C), model group (M), low dosage group (1.3 g/kg), high dosage (2.6 g/kg), positive control drug Huperzine A group (0.1 mg/kg). Except that the normal control group and model group were intragastrically administered with 0.5% CMCNA (0.2 mL/10 g), other groups were intragastrically administered with corresponding drugs once daily for 30 consecutive days. Training was started 1 h after administration in the morning on day 30. Except the normal control group, the memory acquired disorder model of mice was replicated respectively with 2 mg/kg scopolamine hydrobromide 20 minutes before training. Each group was administered in parallel, and the learning performance of mice was determined by step-down test. […]
(1) adaptive period: the animals were placed on the platform, at that time the electric fence was not energized, the latency of jumping down the platform was recorded, the animals were allowed to freely explore 10 s in the test box after jumping down the platform, and were then returned to the cage; […]
as §7, with “The learning performance was tested after 24 h. The” for “The”

[4] = clinical use as cholinesterase inhibitor; cited from earlier work

Which results are given for `C/C=C1\[C@H]2C=C(C)C[C@]1(N)c1ccc(=O)[nH]c1C2` [Huperzine A]?
swimming distance ([1]; Day 1): 892.9 ± 226.6 cm; swimming latency ([1]; Day 1): 68.3 ± 15.6 s; swimming distance ([1]; Day 2): 747.2 ± 93.5 cm; swimming latency ([1]; Day 2): 59.1 ± 13.8 s; swimming distance ([1]; Day 3): 683.3 ± 112.8 cm; swimming latency ([1]; Day 3): 56.3 ± 13.1 s; swimming distance ([1]; Day 4): 669.6 ± 128.3 cm; swimming latency ([1]; Day 4): 48.8 ± 11.1 s; Shuttle times [2]: 2.2 ± 0.5; Time proportion of crossing the original quadrant [2]: 22.6 ± 7.9%; time of first arrival at the platform [2]: 27.0 ± 12.1 s; time of first arrival at the platform ([2]; p<0.05): significantly prolonging; times of crossing the location of the original platform ([2]; p<0.05): significantly decreased; Latency [3]: 146.20 ± 99.97 s; error times compared with the model group ([3]; p<0.05): significantly reduced; latency compared with the model group ([3]; p<0.05): significantly prolonged; Error times ([3]; within 5 minutes): 1.00 ± 0.82; side-effects after ingestion [4]: nausea, dizziness, sweating, abdominal pain, and blurred vision

Reference: patent US10376552B2, “Memory improving composition comprising arillus longan, semen nelumbinis, poria and semen juglandis” (priority 2015, dated 2019)
